# Experimental data published in US10744114B2, “Use of eupatilin as pharmaceutical composition for prevention and treatment of fibrosis using EMT inhibitory activity” (OSTEONEUROGEN INC., priority 2016, dated 2020).
# Tested on: ONGHEPA1 cells
# Test: TGF-β-induced fibrosis of ONGHEPA1 cells (microscope)
# Assay type: cell-based, mouse
# Conditions: 24 hr; for inhibition of the progress of fibrosis (differentiation into myofibroblasts): TGF-β 5 ng/mL plus 50 μM compound; for toxicity to ONGHEPA1 cells: TGF-β plus 50 μM compound
# Excerpt: The liver tissue was separated from C57BL/6 mice and a single-cell suspension thereof was made, and immortalized cells were obtained through continuous culture and were confirmed to be mesenchymal stem cells (MSC) of HSC via RT-PCR (Reverse Transcription Polymerase Chain Reaction) using MC (Immunohistochemistry) and FACS (Fluorescence-Activated Cell Sorting). This cell line was called “ONGHEPA1”, and was deposited with the Korean Collection for Type Cultures (KCTC) of the Korea Research Institute of Bioscience and Biotechnology and assigned accession number KCTC13086BP.
# Using such properties of HSC, the fibrotic characteristics of ONGHEPA1 were measured. To induce fibrosis, TGF-β (transforming growth factor beta) was added, and the morphologies of the cells were observed after 6 hr, 12 hr, 24 hr, and 48 hr. Consequently, fibrosis was confirmed to progress considerably after 24 hr and further progress after 48 hr (A of FIG. 6).
# While ONGHEPA1 cells were incubated, they were treated with TGF-β to induce fibrosis, and 50 μM of eupatilin was added to the culture medium.
# In order to more clearly evaluate the effect of eupatilin as above, changes were measured when ONGHEPA1 cells were first treated with eupatilin, washed to remove eupatilin and then treated with TGF-β to induce fibrosis. […] This means that eupatilin is directly associated with the course of fibrosis to thus inhibit the progress of fibrosis.
# On the contrary, changes were measured when ONGHEPA1 cells were first treated with TGF-β to induce fibrosis, washed to remove TGF-β and then treated with eupatilin. […] Even when fibrosis was already progressed, eupatilin was able to restore the cells to their original normal condition.
# In order to more clearly evaluate whether eupatilin was able to restore the cells that already undergone fibrosis to normal cells, changes were measured when ONGHEPA1 cells were treated with TGF-β for 24 hr to induce complete fibrosis and then treated with eupatilin. […] This means that fibrosis that has progressed considerably can be effectively treated using eupatilin.
# The effects of various chromone derivatives other than eupatilin on fibrosis were measured in the same manner as in Example 3-3. While ONGHEPA1 cells were incubated, fibrosis was induced by TGF-β, and a chromone derivative was added at a concentration of 50 μM to the culture medium.
compound,measurement,setting,value
COc1c(-c2ccccc2)oc2c(OC)c(O)cc(O)c2c1=O [ONGA100],inhibition of the progress of fibrosis (differentiation into myofibroblasts),,no effects or very low effects
same,inhibition of the progress of fibrosis (differentiation into myofibroblasts),listed as Chemical Formula 8,no effects on the inhibition of fibrosis
COc1c(-c2ccc(O)cc2)oc2cc(O)cc(O)c2c1=O [ONGB200],inhibition of the progress of fibrosis (differentiation into myofibroblasts),,no effects or very low effects
same,inhibition of the progress of fibrosis (differentiation into myofibroblasts),listed as Chemical Formula 10,no effects on the inhibition of fibrosis
"COc1cc2oc(-c3ccc(O)cc3)cc(=O)c2c(O)c1OC [ONGC200, 5-hydroxy-2-(4-hydroxyphenyl)-6,7-dimethoxy-chromone]",inhibition of the progress of fibrosis (differentiation into myofibroblasts),,effective at inhibiting the progress of fibrosis
COc1ccc(-c2cc(=O)c3c(O)c(O)c(O)cc3o2)cc1 [ONGD200],toxicity to ONGHEPA1 cells,,toxicity such as necrosis
COc1ccc(-c2oc3cc(O)c(OC)c(O)c3c(=O)c2OC)cc1O [ONGD400],toxicity to ONGHEPA1 cells,,toxicity such as necrosis
"COc1c(O)cc2oc(-c3ccc(O)cc3)cc(=O)c2c1O [ONGE200, 5,7-dihydroxy-2-(4-hydroxyphenyl)-6-methoxy-chromone]",inhibition of the progress of fibrosis (differentiation into myofibroblasts),,effective at inhibiting the progress of fibrosis
same,inhibition of the progress of fibrosis (differentiation into myofibroblasts),listed as Chemical Formula 5,superior fibrosis-inhibiting effects
O=c1cc(-c2ccc(O)c(O)c2O)oc2cc(O)cc(O)c12 [ONGE300],inhibition of the progress of fibrosis (differentiation into myofibroblasts),,no effects or very low effects
same,inhibition of the progress of fibrosis (differentiation into myofibroblasts),listed as Chemical Formula 11,no effects on the inhibition of fibrosis
"COc1cc2oc(-c3ccc(O)c(O)c3)cc(=O)c2c(O)c1OC [ONGH200, 2-(3,4-dihydroxyphenyl)-5-hydroxy-6,7-dimethoxy-chromone]",inhibition of the progress of fibrosis (differentiation into myofibroblasts),,effective at inhibiting the progress of fibrosis
same,inhibition of the progress of fibrosis (differentiation into myofibroblasts),listed as Chemical Formula 7,superior fibrosis-inhibiting effects
COc1cc(-c2oc3cc(O)c(OC)c(O)c3c(=O)c2OC)ccc1O [ONGH300],toxicity to ONGHEPA1 cells,,toxicity such as necrosis
"COc1c(O)cc2oc(-c3ccc(O)c(O)c3)cc(=O)c2c1O [ONGI300, 2-(3,4-dihydroxyphenyl)-5,7-dihydroxy-6-methoxy-chromone]",inhibition of the progress of fibrosis (differentiation into myofibroblasts),,effective at inhibiting the progress of fibrosis
same,inhibition of the progress of fibrosis (differentiation into myofibroblasts),listed as Chemical Formula 3,superior fibrosis-inhibiting effects
"COc1c(O)cc(O)c2c(=O)cc(-c3ccccc3)oc12 [wogonin, reference compound]",inhibition of the progress of fibrosis (differentiation into myofibroblasts),,no effects or very low effects
same,inhibition of the progress of fibrosis (differentiation into myofibroblasts),listed as Chemical Formula 9,no effects on the inhibition of fibrosis
